Experimental data: US8563717B2, “Adenine derivatives” (GlaxoSmithKline LLC, priority 2008, dated 2013)

Columns and labels:
Format in all cases: cell-based
TNF-α = assay: Induction of TNF-α using fresh human PBMCs; conditions: PBMC, 24 hr incubation, relative to 2 μM resiquimod control, read-out: mean pEC50 for induction of TNF-α (converted)
Procedure: (§1) Assay for the Induction of Interferon-α and TNF-α Using Fresh Human Peripheral Blood Mononuclear Cells (PBMCs)
(§2) Compounds were dissolved and serially diluted in DMSO to give 100× the required concentration range using a Biomek 2000. 1 ul of test compound was transferred into 96-well tissue culture plates using a Biomek FX. Each compound was assayed in duplicate for each donor. Each plate contained a dilution series of the TLR7/8 agonist resiquimod as standard and Column 11 contained 1 μl of 200 μM resiquimod (giving a 2 μM final concentration, used to define the approximate maximal response to resiquimod).
(§3) Blood samples from two human donors were collected into sodium heparin (10 U/ml). 25 ml volumes of whole blood were overlaid onto 15 mls Histopaque in Leucosep tubes which were centrifuged at 800 g for 20 min and the band at the plasma/histopaque interface carefully removed. The collected cells were centrifuged at 2500 rpm for 10 min. and the pellet resuspended in 10 ml of media (RPMI 1640 (Low endotoxin) supplemented with 10% v/v foetal calf serum (FCS, low endotoxin) 100 U/ml penicillin G, 100 μg/ml streptomycin, 10 mM L-glutamine and 1× non-essential amino acids). A 1:20 dilution of the cells was prepared using trypan blue & the cells counted using a haemocytometer. The PBMCs were diluted to give a final concentration of 2×10^6/ml and 100 ul of this cells suspension was added to wells containing 1 μl of diluted test compound.
(§4) The cell preparations were incubated for 24 hr. (37° C., 95% air, 5% CO2) after which a sample of the supernatant was removed using the Biomek FX and assayed for both IFN-α and TNF-α using the MSD (Mesoscale Discovery) electrochemiluminescence assay platform. The IFN-α assay was carried out similarly to that described above. The TNF-α assay was carried out as per kit instructions (Cat No K111BHB).
(§5) Cytokine released was expressed as a percentage of the 2 μM resiquimod control (column 11). This percentage was plotted against compound concentration and the pEC50 for the response determined by non-linear least squares curve fitting. For the IFN-α responses generally a 4 parameter logistic model was selected. For the TNF responses where a clear maximum response was obtained (i.e. a well defined plateau in the response was observed) then a 4 parameter model was generally used. If the upper asymptote of the curve wasn't well defined then the curve fitting was generally constrained to a maximal response of 100% (i.e., to the response to 2 μM resiquimod) or to the response of the highest concentration tested if this was greater than the resiquimod response. Some curves were bell shaped for one or both cytokines and the cytokine data on the down slope of the bell shaped response (i.e. concentrations above those giving the maximal response) were generally excluded from the fit, usually with the exception of the concentration immediately above the peak response. Curve fitting thus concentrated on the up slope of the dose response curve.

IL-13 = assay: Allergen-driven cytokine assay using fresh human PBMCs from atopic volunteers (IL-13); conditions: PBMC, PBMCs from at least two allergic donors, 10 μg/ml Timothy grass antigen, compared to the allergen control, read-out: concentration at which ≧50% reduction of IL-13 production observed
Procedure: (§6) Allergen-Driven Cytokine Assay Using Fresh Human Peripheral Blood Mononuclear Cells (PBMCs) from Atopic Volunteers
(§7) An assay based on co-culture of atopic human donor derived peripheral blood mononuclear cells (PBMCs) with allergen and test compounds was developed. After 5-6 days culture, cell supernatants were assayed for a range of cytokines.
(§8) Compounds were dissolved in DMSO, then serially diluted in growth medium (RPMI 1640 medium supplemented with 100 U/ml penicillin G, 100 μg/ml streptomycin, 10 mM L-glutamine) to give 4× the required concentration range in the presence of 0.04% DMSO. Each compound was assayed in triplicate at all concentrations.
(§9) Defibrinated human blood from volunteers known to be allergic to Timothy grass was centrifuged at 2500 rpm for 15 minutes. The upper layer of serum was collected and heat-inactivated at 56° C. for 30 minutes (HI-autologous serum). The lower layer of cells was resuspended in 50 ml PBS (+Ca +Mg), 25 ml diluted blood were overlaid onto 20 ml Lymphoprep in 50 ml tubes then centrifuged at 2500 rpm for 20 minutes at RT. The band at the serum/Lymphoprep interface was carefully removed. The collected cells were washed with PBS and re-suspended at 4×10^6/ml in growth medium with HI-autologous serum. PBMCs were seeded at 0.4×10^6 cells/well in flat-bottomed 96 well plates in the presence of 10 μg/ml Timothy grass antigen (Alk Abello) and test compounds at appropriate concentrations in a total volume of 200 ul.
(§10) Plates were incubated at 37° C. in 5% CO2 for up to 6 days. The cell medium from each well was harvested and stored at −20° C. prior to analysis. Cytokines and chemokines in supernatants were detected using Meso Scale Discovery 10 spot plates for Human TH1/Th2 cytokines.

Interferon-α [1] = assay: Induction of Interferon-α using cryopreserved human PBMCs; conditions: PBMC, 24 h incubation, normalised to 1 uM resiquimod, read-out: mean pEC50 for induction of IFN-α (converted)
Summary of the method: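 Cryopreserved healthy-donor PBMCs at 1×10^6 cells/ml in RPMI/10% FCS with 1000 units/ml IFN-gamma, exposed 24 h at 37 °C to 11-point two-fold compound dilutions. Supernatant IFN-α quantified by MSD electrochemiluminescence immunoassay; pEC50 from 4-parameter fit, normalised to 1 uM resiquimod and DMSO.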

IL-5 = assay: Allergen-driven cytokine assay using fresh human PBMCs from atopic volunteers (IL-5); conditions: PBMC, PBMCs from at least two allergic donors, 10 μg/ml Timothy grass antigen, compared to the allergen control, read-out: concentration at which ≧50% reduction of IL-5 production observed
Procedure: as §6, §7, §8, §9, §10

Interferon-α [2] = assay: Induction of Interferon-α using fresh human PBMCs; conditions: PBMC, 24 hr incubation, relative to 2 μM resiquimod control, read-out: mean pEC50 for induction of IFN-α (converted)
Procedure: as §1, §2, §3, §4, §5

| SMILES | EC50 (TNF-α) | IC50 (IL-13) | IC50 (IL-5) | EC50 (Interferon-α [2]) | EC50 (Interferon-α [1]) |
| --- | --- | --- | --- | --- | --- |
| CCC[C@H](C)Oc1nc(N)c2[nH]c(=O)n(CCC3CCN(C(C)C)CC3)c2n1 [Example 92, 6-Amino-2-{[(1S)-1-methylbutyl]oxy}-9-{2-[1-(1-methylethyl)-4-piperidinyl]ethyl}-7,9-dihydro-8H-purin-8-one] | > 1000 nM | ≤ 40 nM | ≤ 8 nM | < 10 nM | < 1580 nM |
| CCC[C@H](C)Oc1nc(N)c2[nH]c(=O)n(CCCC3CCN(C(C)C)CC3)c2n1 [Example 106, 6-Amino-2-{[(1S)-1-methylbutyl]oxy}-9-{3-[1-(1-methylethyl)-4-piperidinyl]propyl}-7,9-dihydro-8H-purin-8-one] | > 31.6 nM |  |  | < 0.316 nM | < 1580 nM |
| CCC[C@H](C)Oc1nc(N)c2[nH]c(=O)n(CCCCC3CCN(CC)CC3)c2n1 [Example 119, 6-Amino-9-[4-(1-ethyl-4-piperidinyl)butyl]-2-{[(1S)-1-methylbutyl]oxy}-7,9-dihydro-8H-purin-8-one] | > 31.6 nM |  |  | < 0.316 nM | < 1580 nM |
| CCCCOc1nc(N)c2[nH]c(=O)n(CCCCCC3CCNCC3)c2n1 [Example 122, 6-Amino-2-(butyloxy)-9-[5-(4-piperidinyl)pentyl]-7,9-dihydro-8H-purin-8-one] | > 31.6 nM |  |  | < 0.316 nM | < 1580 nM |
| CC(C)Oc1nc(N)c2[nH]c(=O)n(CCCCC3CCNCC3)c2n1 [Example 135, 6-Amino-2-[(1-methylethyl)oxy]-9-[4-(4-piperidinyl)butyl]-7,9-dihydro-8H-purin-8-one] | > 1000 nM |  |  | < 100 nM | < 1580 nM |

The next lines start with results.

| EC50 (TNF-α) | IC50 (IL-13) | IC50 (IL-5) | EC50 (Interferon-α [2]) | SMILES | EC50 (Interferon-α [1]) |
| --- | --- | --- | --- | --- | --- |
| > 1000 nM | ≤ 40 nM | ≤ 8 nM | < 100 nM | CCCCOc1nc(N)c2[nH]c(=O)n(CCC3CCN(CC)CC3)c2n1 [Example 8] | < 1580 nM |
| > 1000 nM | ≤ 40 nM | ≤ 8 nM | < 10 nM | CCCCOc1nc(N)c2[nH]c(=O)n(CCCC3CCN(CC)CC3)c2n1 [Example 9] | < 1580 nM |
| > 1000 nM | ≤ 40 nM | ≤ 8 nM | < 10 nM | CCCCOc1nc(N)c2[nH]c(=O)n(CCCCC3CCN(CC)CC3)c2n1 [Example 10, 6-Amino-2-(butyloxy)-9-[4-(1-ethyl-4-piperidinyl)butyl]-7,9-dihydro-8H-purin-8-one] | < 1580 nM |
| > 1000 nM |  |  | < 1 nM | CCCCOc1nc(N)c2[nH]c(=O)n(CCCCC3CCN(CCC)CC3)c2n1 [Example 108, 6-Amino-2-(butyloxy)-9-[4-(1-propyl-4-piperidinyl)butyl]-7,9-dihydro-8H-purin-8-one] | < 1580 nM |
